In brackets after ≈: the same amount, converted by molar mass. Where only a bound is given, the exact number is not on record here.

For test [1], the target named is quisqualate type receptors. Kind of test: ^3 H-AMPA binding: displacement of ^3 H-AMPA from quisqualate type receptors in cerebral cortical membrane homogenate. Details: species or system rat. Conditions: displacement of 50% of specific ^3 H-AMPA binding; 5 nM ^3 H-AMPA, 0° C., 30 min, pH 7.1. On the procedure:
The pharmacological properties of the compounds of the present invention can be illustrated by determining their capability for displacing radioactively labelled 2-amino-3-hydroxy-5-methyl-4-isoxazolepropionic acid (AMPA) from the quisqualate type receptors.
The displacement activity of the compounds may be shown by determining the IC50 value which represents the concentration (μg/ml) which causes a displacement of 50% of the specific binding of ^3 H-AMPA.
500 μl of thawed rat cerebral cortical membrane homogenate in Tris-HCl (30 mM), CaCl2 (2.5 mM) and KSCN (100 mM) pH 7.1 were incubated at 0° C. for 30 min. with 25 μl ^3 H-AMPA (5 nM final concentration) and the test compound and buffer. Nonspecific binding was determined by incubation with L-glutamic acid (600 μM final concentration). The binding reaction was terminated by adding 5 ml of ice-cold buffer followed by filtration through Whatman GF/C glass fibre filters and 2×5 ml wash with ice-cold buffer. Bound radioactivity was measured by scintillation counting. IC50 was determined by Hill analysis of at least four concentrations of test compound.

The test system of test [2] is quisqualic acid stimulated ^3 H-GABA-efflux from cultured cortical neurones. Description: Antagonism of quisqualic acid stimulated ^3 H-GABA efflux from cultured cortical neurones (release experiments). It counts as cell-based, mouse. To be noted: Rattus norvegicus, Cortical neurone; concentration which reduces the rate of quisqualic acid stimulated ^3 H-GABA efflux by 50%; 37° C., pH 7.4.

For `Cn1c(=O)c(=O)[nH]c2cc([N+](=O)[O-])ccc21` [Compound 7, 1-Methyl-6-nitroquinoxaline-2,3(1H,4H)-dione], the IC50 in test [1] is 0.96 µg/mL (≈ 4.34 µM). Also, in test [2], a half-maximal response (EC50) required 2.1 µg/mL (≈ 9.49 µM). The matching figures for `Cn1c(=O)c(=O)[nH]c2c3ccccc3ccc21` [Compound 13, 4-Methylbenzo[f]quinoxaline-2,3(1H,4H)-dione]: 0.42 µg/mL (≈ 1.86 µM) and 2.1 µg/mL (≈ 9.28 µM). As to `O=c1[nH]c2cc([N+](=O)[O-])c(Cl)cc2n(C2CCCCC2)c1=O` [Compound 16, 1-Cyclohexyl-6-nitro-7-chlorquinoxaline-2,3(1H,4H)-dione], the IC50 in test [1] stood at 0.69 µg/mL (≈ 2.13 µM).

With `O=c1[nH]c2c3ccccc3ccc2n(C2CCCCC2)c1=O` [Compound 27k, 4-Cyclohexylbenzo[f]quinoxaline-2,3(1H,4H)-dione], in test [1], the IC50 came to 0.61 µg/mL (≈ 2.07 µM). The compound also registered an EC50 in test [2] of over 4 µg/mL.

In general, IC50 refers to the concentration that gives 50% inhibition. In general, EC50 refers to the concentration at which the effect is half-maximal. A high value points to a need for much substance.
